Assay results as given in the supplement of paper PMC10307832.

What was measured:
Test in all cases: relative viability (nuclei count vs DMSO), 5 days (fraction); higher = more cells survive
NCI-H322M = tested on: NCI-H322M
Method in brief: (§1)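 A single step with final 0.05% Triton X-100, 1% formaldehyde and 1 ug/ml Hoechst fixed the cells and stained nuclei 5 days after treatment. Lung cancer cell lines in 1536-well plates had been treated by pin tool the day after seeding with one drug alone or a fixed anchor-drug dose plus five library-drug doses (not always all listed) in √10 steps, and nuclei were counted on 4× images. Relative viability is the ratio of nuclei in treated wells to nuclei in vehicle wells, taken as the median of duplicate plates.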

PC-14 = tested on: PC-14
Method in brief: as §1

SW 1573 = tested on: SW 1573
Method in brief: as §1

NCI-H2085 = tested on: NCI-H2085
Method in brief: as §1

NCI-H647 = tested on: NCI-H647
Method in brief: as §1

LXF-289 = tested on: LXF-289
Method in brief: as §1

NCI-H661 = tested on: NCI-H661
Method in brief: as §1

NCI-H2009 = tested on: NCI-H2009
Method in brief: as §1

LCLC-97TM1 = tested on: LCLC-97TM1
Method in brief: as §1

NCI-H1993 = tested on: NCI-H1993
Method in brief: as §1

NCI-H2023 = tested on: NCI-H2023
Method in brief: as §1

NCI-H1734 = tested on: NCI-H1734
Method in brief: as §1

HOP-62 = tested on: HOP-62
Method in brief: as §1

NCI-H727 = tested on: NCI-H727
Method in brief: as §1

NCI-H2126 = tested on: NCI-H2126
Method in brief: as §1

EMC-BAC-2 = tested on: EMC-BAC-2
Method in brief: as §1

H3255 = tested on: H3255
Method in brief: as §1

NCI-H2347 = tested on: NCI-H2347
Method in brief: as §1

NCI-H1915 = tested on: NCI-H1915
Method in brief: as §1

EPLC-272H = tested on: EPLC-272H
Method in brief: as §1

SK-LU-1 = tested on: SK-LU-1
Method in brief: as §1

In the case of `Nc1ccn([C@@H]2O[C@H](CO)[C@@H](O)[C@@H]2O)c(=O)n1` [Cytarabine] + Cc1cc(Nc2cc(N3CCN(C)CC3)nc(Sc3ccc(NC(=O)C4CC4)cc3)n2)n[nH]1 [Tozasertib] (partner 0.1 µM), the relative viability (NCI-H322M; first compound 0.005 µM) was 0.454, the relative viability (NCI-H322M; first compound 0.01581 µM) was 0.416 and the relative viability (NCI-H322M; first compound 0.05 µM) was 0.432. For the same compound, the relative viability (NCI-H322M; first compound 0.1581 µM) was 0.364, the relative viability (NCI-H322M; first compound 0.5 µM) was 0.303 and the relative viability (PC-14; first compound 0.005 µM) was 0.404. It also gave a relative viability (PC-14; first compound 0.01581 µM) of 0.448, a relative viability (PC-14; first compound 0.05 µM) of 0.248 and a relative viability (PC-14; first compound 0.1581 µM) of 0.157. The relative viability (PC-14; first compound 0.5 µM) was 0.0594, the relative viability (SW 1573; first compound 0.005 µM) was 0.184 and the relative viability (SW 1573; first compound 0.01581 µM) was 0.161. The relative viability (SW 1573; first compound 0.05 µM) was 0.128, the relative viability (SW 1573; first compound 0.1581 µM) was 0.169 and the relative viability (SW 1573; first compound 0.5 µM) was 0.101. It also gave a relative viability (NCI-H2085; first compound 0.005 µM) of 0.809, a relative viability (NCI-H2085; first compound 0.01581 µM) of 0.806 and a relative viability (NCI-H2085; first compound 0.05 µM) of 0.844. It also gave a relative viability (NCI-H2085; first compound 0.1581 µM) of 0.694, a relative viability (NCI-H2085; first compound 0.5 µM) of 0.719 and a relative viability (NCI-H647; first compound 0.005 µM) of 0.205. For the same compound, the relative viability (NCI-H647; first compound 0.01581 µM) was 0.22, the relative viability (NCI-H647; first compound 0.05 µM) was 0.0474 and the relative viability (NCI-H647; first compound 0.1581 µM) was 0.073. It also gave a relative viability (NCI-H647; first compound 0.5 µM) of 0.0484, a relative viability (LXF-289; first compound 0.005 µM) of 0.244 and a relative viability (LXF-289; first compound 0.01581 µM) of 0.182. The relative viability (LXF-289; first compound 0.05 µM) was 0.13, the relative viability (LXF-289; first compound 0.1581 µM) was 0.0999 and the relative viability (LXF-289; first compound 0.5 µM) was 0.0753. The relative viability (NCI-H661; first compound 0.005 µM) was 0.371, the relative viability (NCI-H661; first compound 0.01581 µM) was 0.368 and the relative viability (NCI-H661; first compound 0.05 µM) was 0.351. For the same compound, the relative viability (NCI-H661; first compound 0.1581 µM) was 0.349, the relative viability (NCI-H661; first compound 0.5 µM) was 0.364 and the relative viability (NCI-H2009; first compound 0.005 µM) was 0.685. The relative viability (NCI-H2009; first compound 0.01581 µM) was 0.795, the relative viability (NCI-H2009; first compound 0.05 µM) was 0.786 and the relative viability (NCI-H2009; first compound 0.1581 µM) was 0.566. It also gave a relative viability (NCI-H2009; first compound 0.5 µM) of 0.308, a relative viability (LCLC-97TM1; first compound 0.005 µM) of 0.248 and a relative viability (LCLC-97TM1; first compound 0.01581 µM) of 0.247. The relative viability (LCLC-97TM1; first compound 0.05 µM) was 0.235, the relative viability (LCLC-97TM1; first compound 0.1581 µM) was 0.207 and the relative viability (LCLC-97TM1; first compound 0.5 µM) was 0.174. It also gave a relative viability (NCI-H1993; first compound 0.005 µM) of 0.631, a relative viability (NCI-H1993; first compound 0.01581 µM) of 0.633 and a relative viability (NCI-H1993; first compound 0.05 µM) of 0.681. It also gave a relative viability (NCI-H1993; first compound 0.1581 µM) of 0.534, a relative viability (NCI-H1993; first compound 0.5 µM) of 0.564 and a relative viability (NCI-H2023; first compound 0.005 µM) of 0.238. The relative viability (NCI-H2023; first compound 0.01581 µM) was 0.223, the relative viability (NCI-H2023; first compound 0.05 µM) was 0.176 and the relative viability (NCI-H2023; first compound 0.1581 µM) was 0.101. It also gave a relative viability (NCI-H2023; first compound 0.5 µM) of 0.0955, a relative viability (NCI-H1734; first compound 0.005 µM) of 0.245 and a relative viability (NCI-H1734; first compound 0.01581 µM) of 0.232. For the same compound, the relative viability (NCI-H1734; first compound 0.05 µM) was 0.178, the relative viability (NCI-H1734; first compound 0.1581 µM) was 0.117 and the relative viability (NCI-H1734; first compound 0.5 µM) was 0.112. It also gave a relative viability (HOP-62; first compound 0.005 µM) of 0.251, a relative viability (HOP-62; first compound 0.01581 µM) of 0.259 and a relative viability (HOP-62; first compound 0.05 µM) of 0.282. For the same compound, the relative viability (HOP-62; first compound 0.5 µM) was 0.0966, the relative viability (NCI-H727; first compound 0.005 µM) was 0.574 and the relative viability (NCI-H727; first compound 0.01581 µM) was 0.386. For the same compound, the relative viability (NCI-H727; first compound 0.05 µM) was 0.476, the relative viability (NCI-H727; first compound 0.1581 µM) was 0.4 and the relative viability (NCI-H727; first compound 0.5 µM) was 0.463. The relative viability (NCI-H2126; first compound 0.005 µM) was 0.655, the relative viability (NCI-H2126; first compound 0.01581 µM) was 0.774 and the relative viability (NCI-H2126; first compound 0.05 µM) was 0.607. The relative viability (NCI-H2126; first compound 0.1581 µM) was 0.53, the relative viability (NCI-H2126; first compound 0.5 µM) was 0.348 and the relative viability (EMC-BAC-2; first compound 0.005 µM) was 0.302. It also gave a relative viability (EMC-BAC-2; first compound 0.01581 µM) of 0.288, a relative viability (EMC-BAC-2; first compound 0.05 µM) of 0.242 and a relative viability (EMC-BAC-2; first compound 0.1581 µM) of 0.233. For the same compound, the relative viability (EMC-BAC-2; first compound 0.5 µM) was 0.168, the relative viability (H3255; first compound 0.005 µM) was 0.586 and the relative viability (H3255; first compound 0.01581 µM) was 0.644. For the same compound, the relative viability (H3255; first compound 0.05 µM) was 0.786, the relative viability (H3255; first compound 0.1581 µM) was 0.604 and the relative viability (H3255; first compound 0.5 µM) was 0.488. It also gave a relative viability (NCI-H2347; first compound 0.005 µM) of 0.553, a relative viability (NCI-H2347; first compound 0.01581 µM) of 0.427 and a relative viability (NCI-H2347; first compound 0.05 µM) of 0.444. It also gave a relative viability (NCI-H2347; first compound 0.1581 µM) of 0.52, a relative viability (NCI-H2347; first compound 0.5 µM) of 0.402 and a relative viability (NCI-H1915; first compound 0.005 µM) of 0.351. The relative viability (NCI-H1915; first compound 0.01581 µM) was 0.472, the relative viability (NCI-H1915; first compound 0.05 µM) was 0.401 and the relative viability (NCI-H1915; first compound 0.1581 µM) was 0.319. The relative viability (NCI-H1915; first compound 0.5 µM) was 0.32, the relative viability (EPLC-272H; first compound 0.005 µM) was 0.294 and the relative viability (EPLC-272H; first compound 0.01581 µM) was 0.199. For the same compound, the relative viability (EPLC-272H; first compound 0.05 µM) was 0.289, the relative viability (EPLC-272H; first compound 0.1581 µM) was 0.29 and the relative viability (EPLC-272H; first compound 0.5 µM) was 0.261. For the same compound, the relative viability (SK-LU-1; first compound 0.005 µM) was 0.301, the relative viability (SK-LU-1; first compound 0.01581 µM) was 0.325 and the relative viability (SK-LU-1; first compound 0.05 µM) was 0.279. It also gave a relative viability (SK-LU-1; first compound 0.1581 µM) of 0.185 and a relative viability (SK-LU-1; first compound 0.5 µM) of 0.189.
